Experimental data reported in US20240287089A1, “Preparation and Uses of 7-Azaindenoisoquinolines” (Purdue Research Foundation, priority 0001, published 2024).
Read-outs that look alike come from different tables or passages of the source.

What was measured:
[1] = biological target: 3′-TAMRA-labeled MycG4 DNA; test: Fluorescence binding assay; conditions: 20° C., 100 mM K+ buffer, pH 7.0; read-out: Apparent Binding Affinity Kd, app
Experimental: Binding Affinity to the Myc G-Quadruplex. Binding affinity of eight 7-aza-8,9-methylenedioxyindenoisoquinolines to MycG4 was determined using a fluorescence binding assay with a 3′-TAMRA-labeled MycG4 DNA. Monitoring TAMRA emission upon drug titration afforded binding isotherms, from which apparent binding affinities, Kd,app, were derived.
Fluorescence-Based Binding Assays. Fluorescence-based binding assays were performed on a Jasco FP-8300 spectrofluorometer equipped with a temperature controller at 20° C. in a quartz cuvette with a 10 mm path length. 3′-TAMRA-labeled MycG4 DNA (Sigma-Aldrich) was diluted to 20 nM using a 75 mM KCl/25 mM potassium phosphate buffer, pH 7.0. […] Fluorescence intensity at 580 nm, the maximum for the free DNA, was plotted against drug:DNA ratio. The apparent binding dissociation constant, Kd,app, was derived for the binding of each compound. Using OriginPro software (OriginLab Corp., United States) the change in fluorescence intensity was fitted to a one-site binding equation,
where B0 is the initial fluorescence intensity, B is maximum change in fluorescence intensity, R is DNA concentration, and L is drug:DNA ratio.

RAJI lymphoma cells = test: MTS cell viability IC50 assay; type: cell-based; conditions: 72 h
Experimental: Cytotoxicity Results in Raji Non-Hodgkin's Lymphoma Cells. MTS experiments were then conducted to test the anti-proliferative effects of 7-aza-8,9-methylenedioxyindenoisoquinolines in Raji cells. Cells were incubated at 2-2000 nM of each drug for 72 h, and cell viabilities were quantified using the MTS assay. […] This potency trend generally correlated with the western blot results, in which G106 and G108 […] show weaker Myc downregulation.
(§1) MTS Cell Viability IC50 Assay. Drug solutions for MTS IC50 assays of suspension cell lines were made from DMSO stocks by serial-dilutions in 1×PBS (10010-031, Gibco). To set up treatments, drug solutions were plated in triplicates to 96-well tissue culture plates, to which cell-containing media was added to a total volume of 100 μL/well. 100%-viability controls were untreated cells. 2000 cells/well were plated for all suspension cell lines except 3000 cells/well for KMS-27 and 10000 cells/well for CHLA-32. Blanks were cell-free media. Drug treatments were maintained for 72 hr at 37° C. with 5% CO2. To quantify cells, CellTiter 96 AQueous MTS Reagent Powder (G1111, Promega) was dissolved and mixed with phenazine methosulfate (PMS, Sigma-Aldrich P9625) according to manufacturer's instructions. MTS/PMS mix ([…]) was added to treatment wells, 100%-viability control wells, and blank wells. Colors were developed at 37° C. with 5% CO2 for 4 h and absorbance at 490 nm was measured by BioTek Synergy 4 system. To obtain %-viability, A490 values were corrected by blank subtraction, normalized to 100%-viability control, and averaged. Average %-viabilities were plotted against drug dosages to obtain dose-response curves. […] For adherent cell lines, the MTS IC50 assays were conducted the same way as for suspension cell lines except for cell plating and drug treatment. For cell plating, 50 μL of 2000 cells were plated in triplicates to a 96-well tissue culture plate. Cells were allowed sufficient time to become adherent. Serial-diluted drug solutions were made the same way as in the MTS IC50 assays. To set up treatments, drug solutions were mixed with media to two-fold of the final concentrations, and 50 μL of such drug-media mix was then added to 50 μL of plated cells.

AMO-1 = test: MTS GI50, Myc-dependent panel; type: cell-based; conditions: Homo sapiens
Experimental: (§2) Cytotoxicity Results in Myc-dependent Cancer Cell Lines.
as §1

ARD = test: MTS GI50, Myc-dependent panel; type: cell-based; conditions: 72 h
Experimental: as §2, §1

CCRF-CRM = test: MTS GI50, Myc-dependent panel; type: cell-based; conditions: 72 h
Experimental: as §2, §1

CHLA-32 = test: MTS GI50, Myc-dependent panel; type: cell-based
Experimental: as §2, §1

CHLA-99 = test: MTS GI50, Myc-dependent panel; type: cell-based
Experimental: as §2, §1

HL-60 = test: MTS GI50, Myc-dependent panel; type: cell-based; conditions: Homo sapiens, HL-60, 72 h
Experimental: as §2, §1

K-562 = test: MTS GI50, Myc-dependent panel; type: cell-based; conditions: Homo sapiens
Experimental: as §2, §1

KMS-27 = test: MTS GI50, Myc-dependent panel; type: cell-based; conditions: KMS-27, 72 h
Experimental: as §2, §1

Kasumi-1 = test: MTS GI50, Myc-dependent panel; type: cell-based; conditions: Homo sapiens
Experimental: as §2, §1

L-363 = test: MTS GI50, Myc-dependent panel; type: cell-based; conditions: Homo sapiens, L-363, 72 h
Experimental: as §2, §1

MCF-7 = test: MTS GI50, Myc-dependent panel; type: cell-based; conditions: Homo sapiens
Experimental: as §2, §1

MDA-MB-231 = test: MTS GI50, Myc-dependent panel; type: cell-based; conditions: Homo sapiens, MDA-MB-231, 72 h
Experimental: as §2, §1

MOLT-4 = test: MTS GI50, Myc-dependent panel; type: cell-based; conditions: Homo sapiens, MOLT-4, 72 h
Experimental: as §2, §1

RD-ES = test: MTS GI50, Myc-dependent panel; type: cell-based; conditions: 72 h
Experimental: as §2, §1

RPMI-8226 = test: MTS GI50, Myc-dependent panel; type: cell-based; conditions: Homo sapiens, RPMI-8226, 72 h
Experimental: as §2, §1

RS4;11 = test: MTS GI50, Myc-dependent panel; type: cell-based; conditions: Homo sapiens
Experimental: as §2, §1

SK-N-MC = test: MTS GI50, Myc-dependent panel; type: cell-based; conditions: Homo sapiens, 72 h
Experimental: as §2, §1

TC-106 = test: MTS GI50, Myc-dependent panel; type: cell-based
Experimental: as §2, §1

TC-32 = test: MTS GI50, Myc-dependent panel; type: cell-based; conditions: Homo sapiens, TC-32, 72 h
Experimental: as §2, §1

TC-71 = test: MTS GI50, Myc-dependent panel; type: cell-based; conditions: TC-71, 72 h
Experimental: as §2, §1

THP-1 = test: MTS GI50, Myc-dependent panel; type: cell-based; conditions: Homo sapiens, THP-1, 72 h
Experimental: as §2, §1

[2] = system: Myc protein in MCF-7 breast cancer cells; test: Western blot of Myc protein level; type: cell-based; conditions: MCF-7, 0.5, 1.0, 2.0 μM, 24 h
Experimental: Western blot. G-quadruplex formed in the MYC promoter functions as a transcriptional silencer. To determine the effects of 7-aza-8,9-methylenedioxyindenosioquinolines on the MYC protein level, a western blotting experiment was carried out using MCF-7 breast cancer cells. Western blot experiments were conducted to examine the downregulation effects of 7-aza-8,9-methylenedioxyindenosioquinolines on Myc protein level (FIG. 5). MCF-7 breast cancer cells were incubated for 24 h at 0, 0.5, 1.0, and 2.0 μM of G-101-108.
Western Blotting. MCF-7 cells were grown and treated in 6-well tissue culture plates. After collection, cells were suspended in 140 μL lysis buffer containing 1× RIPA buffer, 1× Protease Inhibitor Cocktail (A32965, Thermo Scientific), 1× NuPAGE LDS Sample Buffer (NP0007, Invitrogen), and 1× Sample Reducing Agent (NP0009, Invitrogen). The cell lysates were heated to 75° C. for 10 min. After sonication, 8 μL of each sample was loaded on a 4-15% Mini-PROTEAN TGX gel (4561086, Bio-Rad). […] Myc and GAPDH were detected with 1:1000-diluted monoclonal anti-Myc antibody (5605S, Cell Signaling Technology) and 1:2000-diluted monoclonal anti-GAPDH antibody (5174S, Cell Signaling Technology), respectively. Primary antibodies were detected by anti-Rabbit IgG HRP-linked antibody (7074S, Cell Signaling Technology). […]

human Topo1 = human Topo1 (Homo sapiens (Human), UniProt P11387); test: Topo1-mediated DNA cleavage assay; type: biochemical; conditions: 10 μM
Experimental: 7-Aza-8,9-methylenedioxyindenoisoquinoline compounds were examined for inhibitory effects on Topol-mediated DNA relaxation (FIG. 11A), and for Topol poison effect using Topol-Mediated DNA Cleavage Assay (FIG. 11B).
Topol-Mediated DNA Cleavage Assay. Human Topoisomerase I Assay Kit (TG1015-1A) from Topogen was used to examine the compounds for Topol poison effect. Assay was performed according to manufacturer's instructions. CPT at 10 μM was used as a positive control. […] Assay samples were incubated at 37° C. for 30 min followed by reaction termination with 10% SDS. This was followed by a 15 min Proteinase K digestion for 15 min at 37° C. to degrade Topo1 and a 1:1 volume chloroform:isoamyl alcohol DNA extraction. Samples were electrophoresed on a 1% agarose gel in TBE buffer for 2 h at 46 v. Both the agarose gel and buffer contained 0.5 μg/ml of ethidium bromide.

[3] = AMO1, AMO-1, 72 h, read-out: GI50
[4] = K562, K-562, 72 h, read-out: GI50
[5] = MCF7, MCF-7, 72 h, read-out: GI50

Sequence of human Topo1 (P11387 whole entry): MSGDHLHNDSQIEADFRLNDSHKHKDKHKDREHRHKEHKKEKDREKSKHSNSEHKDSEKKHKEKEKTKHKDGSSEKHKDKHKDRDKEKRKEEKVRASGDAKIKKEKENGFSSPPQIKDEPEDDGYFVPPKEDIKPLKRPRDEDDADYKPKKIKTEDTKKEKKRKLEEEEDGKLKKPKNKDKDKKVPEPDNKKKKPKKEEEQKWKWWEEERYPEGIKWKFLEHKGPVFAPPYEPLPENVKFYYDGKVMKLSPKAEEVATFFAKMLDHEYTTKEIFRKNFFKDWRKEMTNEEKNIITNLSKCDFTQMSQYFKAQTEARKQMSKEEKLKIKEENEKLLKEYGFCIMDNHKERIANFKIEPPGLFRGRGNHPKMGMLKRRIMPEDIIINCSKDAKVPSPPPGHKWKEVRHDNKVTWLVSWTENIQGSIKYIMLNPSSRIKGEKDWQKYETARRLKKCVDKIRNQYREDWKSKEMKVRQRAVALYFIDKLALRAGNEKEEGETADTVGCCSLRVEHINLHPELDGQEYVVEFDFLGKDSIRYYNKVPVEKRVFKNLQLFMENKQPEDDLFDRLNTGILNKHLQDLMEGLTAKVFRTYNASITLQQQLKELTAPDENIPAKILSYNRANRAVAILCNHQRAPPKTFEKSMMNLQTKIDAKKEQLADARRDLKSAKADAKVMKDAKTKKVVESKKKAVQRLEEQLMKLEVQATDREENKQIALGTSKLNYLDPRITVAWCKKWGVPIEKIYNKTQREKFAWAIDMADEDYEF

COc1cc2c3c(n(CCCN4CCC[C@H]4C(N)=O)c(=O)c2cc1OC)-c1nc2c(cc1C3=O)OCO2 [G106, (S)-1-(3-(2,3-dimethoxy-5,12-dioxo-5,12-dihydro-6H-[1,3]dioxolo [4″,5″:5′,6′]pyrido[3′,2′:4,5]cyclopenta[1,2-c]isoquinolin-6-yl)propyl)pyrrolidine-2-carboxamide]
Kd [1]: 55 nM | IC50 (RAJI lymphoma cells; RAJI): 1980 nM

COc1cc2c3c(n(CCCn4ccnc4)c(=O)c2cc1OC)-c1cc2c(cc1C3=O)OCO2 [LMP776, indimitecan]
Kd [1]: 69 nM | IC50 (RAJI lymphoma cells; Homo sapiens, Raji): 92 nM | GI50 (AMO-1; [3]): 191 nM | GI50 (ARD; ARD, read-out: GI50): 33 nM | GI50 (CCRF-CRM; CCRF-CRM, read-out: GI50): 70 nM | GI50 (CHLA-32; CHLA-32, 72 h, read-out: GI50): 93 nM | GI50 (CHLA-99; CHLA-99, 72 h, read-out: GI50): 276 nM | GI50 (HL-60; read-out: GI50): 894 nM | GI50 (K-562; [4]): 341 nM | GI50 (KMS-27; read-out: GI50): 127 nM | GI50 (Kasumi-1; Kasumi-1, 72 h, read-out: GI50): 533 nM | GI50 (L-363; read-out: GI50): 53 nM | GI50 (MCF-7; [5]): > 2000 nM | GI50 (MDA-MB-231; read-out: GI50): 329 nM | GI50 (MOLT-4; read-out: GI50): 42 nM | GI50 (RD-ES; read-out: GI50): 227 nM | GI50 (RPMI-8226; read-out: GI50): 139 nM | GI50 (RS4;11; RS4;11, 72 h, read-out: GI50): 59 nM | GI50 (SK-N-MC; read-out: GI50): 225 nM | GI50 (TC-106; TC-106, 72 h, read-out: GI50): 250 nM | GI50 (TC-32; read-out: GI50): 179 nM | GI50 (TC-71; read-out: GI50): 232 nM | GI50 (THP-1; read-out: GI50): 273 nM

COc1cc2c3c(n(CCCN4CCCC4)c(=O)c2cc1OC)-c1nc2c(cc1C3=O)OCO2 [G108, 2,3-Dimethoxy-6-(3-(pyrrolidin-1-yl)propyl)-5H-[1,3]dioxolo[4″,5″:5′,6′]pyrido[3′,2′:4,5]cyclopenta[1,2-c]isoquinoline-5,12(6H)-dione]
Myc protein level (Western blot) [2]: weak Myc downregulation | IC50 (RAJI lymphoma cells; RAJI): 1710 nM | inhibition of DNA relegation (Top1 poison effect) (human Topo1): minimal effects on DNA relegation

CC[C@@]1(O)C(=O)OCc2c1cc1n(c2=O)Cc2cc3ccccc3nc2-1 [CPT, Camptothecin]
GI50 (AMO-1; [3]): 20 nM | GI50 (ARD; ARD, read-out: GI50): 11 nM | GI50 (CCRF-CRM; CCRF-CRM, read-out: GI50): 4 nM | GI50 (CHLA-32; CHLA-32, 72 h, read-out: GI50): 6 nM | GI50 (CHLA-99; CHLA-99, 72 h, read-out: GI50): 4 nM | GI50 (HL-60; read-out: GI50): 27 nM | GI50 (K-562; [4]): 22 nM | GI50 (KMS-27; read-out: GI50): 13 nM | GI50 (Kasumi-1; Kasumi-1, 72 h, read-out: GI50): 85 nM | GI50 (L-363; read-out: GI50): 10 nM | GI50 (MCF-7; [5]): 200 nM | GI50 (MDA-MB-231; read-out: GI50): 37 nM | GI50 (MOLT-4; read-out: GI50): < 2 nM | GI50 (RD-ES; read-out: GI50): 5 nM | GI50 (RPMI-8226; read-out: GI50): 14 nM | GI50 (RS4;11; RS4;11, 72 h, read-out: GI50): 6 nM | GI50 (SK-N-MC; read-out: GI50): 9 nM | GI50 (TC-106; TC-106, 72 h, read-out: GI50): 11 nM | GI50 (TC-32; read-out: GI50): 7 nM | GI50 (TC-71; read-out: GI50): 8 nM | GI50 (THP-1; read-out: GI50): 55 nM

COc1cc2c3c(n(CCCNCCO)c(=O)c2cc1OC)-c1cc2c(cc1C3=O)OCO2 [LMP517]
Kd [1]: 109 nM | IC50 (RAJI lymphoma cells; Homo sapiens, Raji): 53 nM | GI50 (AMO-1; AMO1, 72 h): 69 nM | GI50 (ARD): 27 nM | GI50 (CCRF-CRM): 11 nM | GI50 (CHLA-32; 72 h): 37 nM | GI50 (CHLA-99; 72 h): 44 nM | GI50 (HL-60): 137 nM | GI50 (K-562; K562, 72 h): 74 nM | GI50 (KMS-27): 44 nM | GI50 (Kasumi-1; Kasumi 1, 72 h): 148 nM | GI50 (L-363): 42 nM | GI50 (MCF-7; MCF7, 72 h): 418 nM | GI50 (MDA-MB-231): 319 nM | GI50 (MOLT-4): 3 nM | GI50 (RD-ES): 9 nM | GI50 (RPMI-8226): 82 nM | GI50 (RS4;11; RS4-11, 72 h): 7 nM | GI50 (SK-N-MC): 62 nM | GI50 (TC-106; 72 h): 51 nM | GI50 (TC-32): 12 nM | GI50 (TC-71): 58 nM | GI50 (THP-1): 93 nM
